{
  "source": "PubChem BioAssay (NCI)",
  "experiment_in_all_cases": "NCI anticancer screen, dose series, 48 h",
  "key": {"PC-3 prostate": {"system": "PC-3 prostate"}, "SK-MEL-28 melanoma": {"system": "SK-MEL-28 melanoma"}, "SN12C renal": {"system": "SN12C renal"}, "EKVX NSCLC": {"system": "EKVX NSCLC"}, "SW-620 colon": {"system": "SW-620 colon"}, "UACC-257 melanoma": {"system": "UACC-257 melanoma"}, "T-47D breast": {"system": "T-47D breast"}, "BT-549 breast": {"system": "BT-549 breast"}, "SNB-19 CNS": {"system": "SNB-19 CNS"}, "HT29 colon": {"system": "HT29 colon"}, "DU-145 prostate": {"system": "DU-145 prostate"}, "MDA-MB-435": {"system": "MDA-MB-435"}, "IGROV1 ovarian": {"system": "IGROV1 ovarian"}, "OVCAR-3 ovarian": {"system": "OVCAR-3 ovarian"}, "SF-295 CNS": {"system": "SF-295 CNS"}, "A549 NSCLC": {"system": "A549 NSCLC"}, "RPMI-8226 leukemia": {"system": "RPMI-8226 leukemia"}, "786-0 renal": {"system": "786-0 renal"}, "MALME-3M melanoma": {"system": "MALME-3M melanoma"}, "NCI-H522 lung": {"system": "NCI-H522 lung"}, "M14 melanoma": {"system": "M14 melanoma"}, "NCI-H460 lung": {"system": "NCI-H460 lung"}, "SNB-75 CNS": {"system": "SNB-75 CNS"}, "SF-268 CNS": {"system": "SF-268 CNS"}, "HCC-2998 colon": {"system": "HCC-2998 colon"}, "ACHN renal": {"system": "ACHN renal"}, "HCT-15 colon": {"system": "HCT-15 colon"}, "NCI-H226 lung": {"system": "NCI-H226 lung"}, "COLO 205 colon": {"system": "COLO 205 colon"}},
  "note": "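1) Cells in 96-well plates. 2) Compound, 48 h, 5 concentrations. 3) Linear interpolation between surrounding doses. 4) Unreached endpoint = highest concentration. GI50 is the concentration that inhibits growth by half. TGI: concentration producing complete growth inhibition.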",
  "data": [
    {"smiles": "O=C1OCC(C#Cc2ccccc2)=C1Br", "values": [
      {"measurement": "TGI", "setting": "PC-3 prostate", "result": 12.7, "unit": "µM"},
      {"measurement": "GI50", "setting": "SK-MEL-28 melanoma", "result": 4.75, "unit": "µM"},
      {"measurement": "TGI", "setting": "SK-MEL-28 melanoma", "result": "> 100", "unit": "µM"},
      {"measurement": "GI50", "setting": "SN12C renal", "result": 3.14, "unit": "µM"},
      {"measurement": "TGI", "setting": "SN12C renal", "result": 14.1, "unit": "µM"},
      {"measurement": "GI50", "setting": "EKVX NSCLC", "result": 17.2, "unit": "µM"},
      {"measurement": "TGI", "setting": "EKVX NSCLC", "result": 35.5, "unit": "µM"},
      {"measurement": "GI50", "setting": "SW-620 colon", "result": 1.72, "unit": "µM"},
      {"measurement": "TGI", "setting": "SW-620 colon", "result": 5.75, "unit": "µM"},
      {"measurement": "GI50", "setting": "UACC-257 melanoma", "result": 8.26, "unit": "µM"},
      {"measurement": "TGI", "setting": "UACC-257 melanoma", "result": 28.2, "unit": "µM"},
      {"measurement": "GI50", "setting": "T-47D breast", "result": 16.3, "unit": "µM"},
      {"measurement": "TGI", "setting": "T-47D breast", "result": "> 67.5", "unit": "µM"},
      {"measurement": "GI50", "setting": "BT-549 breast", "result": 6.03, "unit": "µM"},
      {"measurement": "TGI", "setting": "BT-549 breast", "result": 27.4, "unit": "µM"},
      {"measurement": "GI50", "setting": "SNB-19 CNS", "result": 21.5, "unit": "µM"},
      {"measurement": "TGI", "setting": "SNB-19 CNS", "result": "> 68.8", "unit": "µM"},
      {"measurement": "GI50", "setting": "HT29 colon", "result": 7.67, "unit": "µM"},
      {"measurement": "TGI", "setting": "HT29 colon", "result": 97.4, "unit": "µM"},
      {"measurement": "GI50", "setting": "DU-145 prostate", "result": 3.42, "unit": "µM"},
      {"measurement": "TGI", "setting": "DU-145 prostate", "result": 13.2, "unit": "µM"},
      {"measurement": "GI50", "setting": "MDA-MB-435", "result": 10.8, "unit": "µM"},
      {"measurement": "TGI", "setting": "MDA-MB-435", "result": 48.3, "unit": "µM"},
      {"measurement": "GI50", "setting": "IGROV1 ovarian", "result": 4.77, "unit": "µM"},
      {"measurement": "TGI", "setting": "IGROV1 ovarian", "result": 33.5, "unit": "µM"},
      {"measurement": "GI50", "setting": "OVCAR-3 ovarian", "result": 1.77, "unit": "µM"},
      {"measurement": "TGI", "setting": "OVCAR-3 ovarian", "result": 8.9, "unit": "µM"},
      {"measurement": "GI50", "setting": "SF-295 CNS", "result": 17.7, "unit": "µM"},
      {"measurement": "TGI", "setting": "SF-295 CNS", "result": 48.8, "unit": "µM"},
      {"measurement": "GI50", "setting": "A549 NSCLC", "result": 16.7, "unit": "µM"},
      {"measurement": "TGI", "setting": "A549 NSCLC", "result": 34.6, "unit": "µM"},
      {"measurement": "GI50", "setting": "RPMI-8226 leukemia", "result": 0.648, "unit": "µM"},
      {"measurement": "TGI", "setting": "RPMI-8226 leukemia", "result": 3.09, "unit": "µM"},
      {"measurement": "GI50", "setting": "786-0 renal", "result": 2.58, "unit": "µM"},
      {"measurement": "TGI", "setting": "786-0 renal", "result": 12.5, "unit": "µM"},
      {"measurement": "GI50", "setting": "MALME-3M melanoma", "result": 2.18, "unit": "µM"},
      {"measurement": "TGI", "setting": "MALME-3M melanoma", "result": 9.33, "unit": "µM"},
      {"measurement": "GI50", "setting": "NCI-H522 lung", "result": 17.4, "unit": "µM"},
      {"measurement": "TGI", "setting": "NCI-H522 lung", "result": 49.7, "unit": "µM"},
      {"measurement": "GI50", "setting": "M14 melanoma", "result": 2.83, "unit": "µM"},
      {"measurement": "TGI", "setting": "M14 melanoma", "result": 16, "unit": "µM"},
      {"measurement": "GI50", "setting": "NCI-H460 lung", "result": 19.5, "unit": "µM"},
      {"measurement": "TGI", "setting": "NCI-H460 lung", "result": 48.5, "unit": "µM"},
      {"measurement": "GI50", "setting": "SNB-75 CNS", "result": 18.1, "unit": "µM"},
      {"measurement": "TGI", "setting": "SNB-75 CNS", "result": "> 100", "unit": "µM"},
      {"measurement": "GI50", "setting": "SF-268 CNS", "result": 4.76, "unit": "µM"},
      {"measurement": "TGI", "setting": "SF-268 CNS", "result": 20.6, "unit": "µM"},
      {"measurement": "GI50", "setting": "HCC-2998 colon", "result": 19.3, "unit": "µM"},
      {"measurement": "TGI", "setting": "HCC-2998 colon", "result": 37.3, "unit": "µM"},
      {"measurement": "GI50", "setting": "ACHN renal", "result": 9.34, "unit": "µM"},
      {"measurement": "TGI", "setting": "ACHN renal", "result": "> 43.9", "unit": "µM"},
      {"measurement": "GI50", "setting": "HCT-15 colon", "result": 3.96, "unit": "µM"},
      {"measurement": "TGI", "setting": "HCT-15 colon", "result": "> 38.4", "unit": "µM"},
      {"measurement": "GI50", "setting": "NCI-H226 lung", "result": 23.1, "unit": "µM"},
      {"measurement": "TGI", "setting": "NCI-H226 lung", "result": 72, "unit": "µM"},
      {"measurement": "GI50", "setting": "COLO 205 colon", "result": 5.35, "unit": "µM"},
      {"measurement": "TGI", "setting": "COLO 205 colon", "result": "> 54.7", "unit": "µM"}
    ]}
  ]
}
